Data on ten molecules can be found in PMC11562385 (RSC Chemical Biology, 2024).

For one data set, the target named is T1, PD1:PDL1 interaction (Homo sapiens, UniProt Q15116).
T1 construct: purchased BPS Bioscience 72005
Kind of data set: PD1/PDL1 immunoblocking ELISA (BPS Bioscience kit cat # 72005). It counts as binding. The protocol:
Original loops with Phe/Trp and their Gly-derived analogs. Experimental EC50 values from inhibitory dose–response curves. Error bars indicate the mean ± SD, (n = 3). […]
SDS -Pages, buffers, and stain were purchased from Fisher
8. Immunoblocking ELISA Assay
Peptide inhibitor stock solutions were prepared in the concentration range of approximately 1-5 mM in DMSO. […]
plate was then washed and blocked with blocking buffer for 1 h at room temperature. Inhibitor solutions (ranging from 0.01 to 100 μM) and a blank solution (DMSO/PBS buffer) were added to designated wells. To initiate the […]
inhibitor solutions. After a 2 h incubation at room temperature, the plate was washed and blocked again for 10 min. Streptavidin-HRP (diluted at 1 : 1000) was added and incubated for 1 h at room temperature with gentle shaking. The plate was washed and blocked once more for 10 min. ELISA ECL substrate was added, and the resulting chemoluminescence was immediately measured in a luminometer (FLUOstar OPTIMA, BMG Labtech).
The luminescence value of the blank was subtracted from all readings according to the manufacturer's

Data set [1] can be described thus: Variable-temperature CD melting curves (CD-melts at 228±2 nm and 202±2 nm), individual and global two-state fits. It is filed as physicochemical. The protocol: Recently, our laboratory brought forward a novel synthetic technology for the synthesis of acyclic β-hairpins with long loops. […] To compare hairpins’ stability, both regular (R) and bulged (B) scaffolds were crafted around a flexible 10-residue model loop (G4K2G4) and analyzed by CD (circular dichroism) spectroscopy (Fig. 2(A), see ESI, ^† Table S5). The […] structure of these model scaffolds 1avs.2a in solution were recorded in the far-UV CD spectra. […] The CD-exciton intensity was therefore used as a global probe to determine the %-folding of ADAPTins and to obtain melting curves corresponding to the hairpin fraying mechanism upon a gradual increase of temperature (0 to 95 °C).[68] […] In addition, NMR (nuclear magnetic resonance) chemical shifts were measured to determine variations in backbone […] structures (Fig. 2(B)). Secondary chemical shift deviations (CSDs) were calculated against random coil values[69] for both ADAPTin scaffolds 1vs.2 to verify that the hairpins were folded and if any variation of conformational rigidity exist within the loops. […]
Mass Spectrometer coupled to a Vanquish™ Neo UHPLC System (Thermo Scientific™). Peptide solutions for circular dichroism (CD) were prepared within a concentration range of 15-120 µM in a phosphate buffer (15 mM, […]
measured accurately using a JASCO V-670 spectrophotometer relied on the combined molar absorptivity of Trp (ε280 = 5580 M-1 .cm-1 per Trp) and Tyr (ε280 = 1280 M-1 .cm-1 per Tyr) to determine each sample's concentration.
CD spectra were recorded using a JASCO J-810 Spectropolarimeter equipped with a temperature controller module JASCO PFD-425S. Raw CD melting curves were processed in SpectraGryph, and fitting was performed in OriginPro 9.0 (Originlab Corporation, U.S.A.). NMR samples were prepared by reconstituting freeze -dried peptides (~ 1-5 mg) in mixture of water and DMSO -d6 (90:10 v/v) using 2,2-dimethyl-2-silapentane-5-sulfonate (DSS) as internal standard for chemical shifts (0 ppm), and spectra were recorded at 291 K (18 °C) unless otherwise stated. Chemical shifts ( δ) are reported in ppm. Samples for NMR experiments were prepared in a range of 3-10 mM of peptide in solution unless otherwise noted.

Setting [2] is: ELISA, mean of three independent experiments, read-out: EC50 Value.
The mark [3] stands for this setting: xlsx sheet of the peptide, individual fit of CD-melt.

pEC50: −log10 of the molar value. Like-named read-outs stand apart in the source and are kept apart here. Square brackets hold non-standard residues; d marks the D form. Peptide text beside a SMILES is read from it. * marks the point of attachment. Dab = NCC[C@H](N)C(=O)O; Dap = NC[C@H](N)C(=O)O; Acryloyl = C=CC(=O)*

T1 sequence (Q15116 25-167 limits assumed): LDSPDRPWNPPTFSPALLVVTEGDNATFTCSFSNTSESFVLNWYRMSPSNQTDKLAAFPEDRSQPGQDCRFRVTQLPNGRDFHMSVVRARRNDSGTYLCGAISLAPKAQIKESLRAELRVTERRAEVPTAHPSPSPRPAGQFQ

As to `C=CC(=O)NC[C@H](NC(=O)CNC(=O)[C@H](CC(=O)O)NC(=O)[C@@H](NC(=O)[C@H](CC(N)=O)NC(=O)[C@H](CCSC)NC(=O)CNC(=O)[C@H](CCC(=O)O)NC(=O)[C@H](CCCNC(=N)N)NC(=O)[C@H](C)NC(=O)[C@@H](NC(=O)[C@H](Cc1c[nH]c2ccccc12)NC(=O)[C@@H](N)CCCNC(=N)N)C(C)C)[C@@H](C)O)C(=O)N[C@@H](Cc1ccccc1)C(=O)N[C@@H](CC(N)=O)C(=O)N[C@@H](Cc1ccc(O)cc1)C(=O)N[C@@H](Cc1c[nH]c2ccccc12)C(=O)N[C@H](C(=O)N[C@@H](Cc1c[nH]c2ccccc12)C(=O)N[C@@H](CCC(=O)O)C(=O)O)C(C)C` [2pb] (H-RWVAREGMNTDG[Dap](Acryloyl)FNYWVWE-OH), the pEC50 at PD1:PDL1 interaction (setting [2]) is 5.52.
On to `CSCC[C@H](NC(=O)[C@H](CC(=O)O)NC(=O)CNC(=O)[C@H](CCCNC(=N)N)NC(=O)[C@H](Cc1ccc(O)cc1)NC(=O)[C@H](CC(=O)O)NC(=O)[C@H](CCCNC(=N)N)NC(=O)[C@H](CCCNC(=N)N)NC(=O)[C@H](C)NC(=O)[C@@H](NC(=O)[C@H](Cc1c[nH]c2ccccc12)NC(=O)[C@@H](N)CCCNC(=N)N)C(C)C)C(=O)NCC(=O)N[C@@H](Cc1ccccc1)C(=O)N[C@@H](CC(=O)O)C(=O)N[C@@H](Cc1ccc(O)cc1)C(=O)N[C@@H](Cc1c[nH]c2ccccc12)C(=O)N[C@@H](Cc1cnc[nH]1)C(=O)N[C@@H](Cc1c[nH]c2ccccc12)C(=O)N[C@@H](CCC(=O)O)C(=O)O` [2d] (H-RWVARRDYRGDMGFDYWHWE-OH), for which the pEC50 was 5.25 on PD1:PDL1 interaction (setting [2]) and less than 5.30 at PD1:PDL1 interaction ([PD1•PDL1] blocking EC50, Fig. 3B, cut-off bars of congeneric pairs (Phe/Trp vs Gly), n = 3).
In the case of `CSCC[C@H](NC(=O)CNC(=O)[C@H](CCC(=O)O)NC(=O)[C@H](CCCNC(=N)N)NC(=O)[C@H](C)NC(=O)[C@@H](NC(=O)[C@H](Cc1c[nH]c2ccccc12)NC(=O)[C@@H](N)CCCNC(=N)N)C(C)C)C(=O)N[C@@H](CC(N)=O)C(=O)N[C@H](C(=O)N[C@@H](CC(=O)O)C(=O)N[C@@H](Cc1c[nH]c2ccccc12)C(=O)N[C@@H](Cc1ccc(O)cc1)C(=O)N[C@@H](Cc1ccccc1)C(=O)N[C@@H](CC(=O)O)C(=O)N[C@@H](Cc1ccc(O)cc1)C(=O)N[C@@H](Cc1c[nH]c2ccccc12)C(=O)N[C@@H](Cc1cnc[nH]1)C(=O)N[C@@H](Cc1c[nH]c2ccccc12)C(=O)N[C@@H](CCC(=O)O)C(=O)O)[C@@H](C)O` [2n] (H-RWVAREGMNTDWYFDYWHWE-OH), on PD1:PDL1 interaction (setting [2]), the pEC50 is 6.60.
Still for that read-out and setting: in the case of `CSCC[C@H](NC(=O)[C@H](CC(=O)O)NC(=O)[C@H](Cc1ccccc1)NC(=O)[C@H](CCCNC(=N)N)NC(=O)[C@H](Cc1ccc(O)cc1)NC(=O)[C@H](CC(=O)O)NC(=O)[C@H](CCCNC(=N)N)NC(=O)[C@H](CCCNC(=N)N)NC(=O)[C@@H](NC(=O)[C@@H](NC(=O)[C@H](Cc1c[nH]c2ccccc12)NC(=O)[C@@H](N)CCCNC(=N)N)C(C)C)C(C)C)C(=O)NCC(=O)N[C@@H](Cc1ccccc1)C(=O)N[C@@H](CC(=O)O)C(=O)N[C@@H](Cc1ccc(O)cc1)C(=O)N[C@@H](Cc1c[nH]c2ccccc12)C(=O)N[C@H](C(=O)N[C@@H](Cc1c[nH]c2ccccc12)C(=O)N[C@@H](CCC(=O)O)C(=O)O)C(C)C` [2i] (H-RWVVRRDYRFDMGFDYWVWE-OH) it was 7.15; in that of `C=CC(=O)NCC[C@H](NC(=O)CNC(=O)[C@H](CC(=O)O)NC(=O)[C@@H](NC(=O)[C@H](CC(N)=O)NC(=O)[C@H](CCSC)NC(=O)CNC(=O)[C@H](CCC(=O)O)NC(=O)[C@H](CCCNC(=N)N)NC(=O)[C@H](C)NC(=O)[C@@H](NC(=O)[C@H](Cc1c[nH]c2ccccc12)NC(=O)[C@@H](N)CCCNC(=N)N)C(C)C)[C@@H](C)O)C(=O)N[C@@H](Cc1ccccc1)C(=O)N[C@@H](CC(N)=O)C(=O)N[C@@H](Cc1ccc(O)cc1)C(=O)N[C@@H](Cc1c[nH]c2ccccc12)C(=O)N[C@H](C(=O)N[C@@H](Cc1c[nH]c2ccccc12)C(=O)N[C@@H](CCC(=O)O)C(=O)O)C(C)C` [2pa] (H-RWVAREGMNTDG[Dab](Acryloyl)FNYWVWE-OH), 6.02.
Still for that read-out and setting: in the case of `C=CC(=O)NC[C@H](NC(=O)[C@H](CC(=O)O)NC(=O)[C@H](Cc1ccccc1)NC(=O)[C@H](CCCNC(=N)N)NC(=O)[C@H](Cc1ccc(O)cc1)NC(=O)[C@H](CC(=O)O)NC(=O)[C@H](CCCNC(=N)N)NC(=O)[C@H](CCCNC(=N)N)NC(=O)[C@H](C)NC(=O)[C@@H](NC(=O)[C@H](Cc1c[nH]c2ccccc12)NC(=O)[C@@H](N)CCCNC(=N)N)C(C)C)C(=O)NCC(=O)N[C@@H](Cc1ccccc1)C(=O)N[C@@H](CC(=O)O)C(=O)N[C@@H](Cc1ccc(O)cc1)C(=O)N[C@@H](Cc1c[nH]c2ccccc12)C(=O)N[C@H](C(=O)N[C@@H](Cc1c[nH]c2ccccc12)C(=O)N[C@@H](CCC(=O)O)C(=O)O)C(C)C` [2cb] (H-RWVARRDYRFD[Dap](Acryloyl)GFDYWVWE-OH) it was 5.40.
As to “RWCAR-RDYRFDMGFD-YWGWE [Native, peptide 'Native', no fold by CD]”, the “fold by CD signature (in words)” value in data set [1] (no hairpin exciton, no fit possible) was “No fold”.
Consider `CC[C@H](C)[C@H](NC(=O)[C@H](Cc1ccc(O)cc1)NC(=O)[C@H](Cc1c[nH]c2ccccc12)NC(=O)[C@H](Cc1ccc(O)cc1)NC(=O)[C@H](CC(N)=O)NC(=O)CNC(=O)[C@H](Cc1ccc(O)cc1)NC(=O)[C@H](C)NC(=O)[C@H](CCCNC(=N)N)NC(=O)[C@H](C)NC(=O)[C@@H](NC(=O)[C@H](Cc1c[nH]c2ccccc12)NC(=O)[C@@H](N)CCCNC(=N)N)C(C)C)C(=O)N[C@@H](CC(=O)O)C(=O)N[C@H](C(=O)N[C@@H](Cc1c[nH]c2ccccc12)C(=O)N[C@@H](Cc1cnc[nH]1)C(=O)N[C@@H](Cc1c[nH]c2ccccc12)C(=O)N[C@@H](CCC(=O)O)C(=O)O)C(C)C` [2q] (H-RWVARAYGNYWYIDVWHWE-OH), for which the pEC50 at PD1:PDL1 interaction (setting [2]) is 6.64.
In turn, “RWVA-RGGGGKKGGFD-YWVWE [2a, bulged (B) β-hairpin model scaffold]” came in with a ΔGF0 in data set [1] (CD-melt at 228±2 nm, individual two-state Gibbs-Helmholtz fit (Origin 9.0), 0-95 °C, phosphate buffer 15 mM pH 6.5 ± MeOH) of -0.90 ± 0.006 kcal/mol. The Tm in data set [1] (Table S5, individual fit, 228±2 nm) stood at 44.8 oC. In addition, the “Hairpin %-fold 291K” value in data set [1] (Table S5, individual fit, 291 K) is on record as 87 ± 1%. In addition, the “Hairpin %-fold 310K” value in data set [1] (Table S5, individual fit, 310 K) was 66 ± 1%. Moreover, in data set [1] (as E16), the “-TΔSF0” value was determined as 9.87 ± 0.1 kcal/mol, the ΔCpF0 is given as -372 ± 10 cal.deg-1.mol-1 and the ΔHF0 is -10.8 ± 0.1 kcal/mol. Besides, in data set [1] (calculated from CD-melts), the “melting temperature (TM) upshift vs regular hairpin 1a” value was “about 10 °C”. Moreover, in data set [1] (setting [3]), the “DHm, fitted value from OriginPro” value is -18.1854 kcal/mol and the “Tm, fitted value from OriginPro” value was 317.92 K.
Turning to `CC(C)C[C@H](NC(=O)[C@H](CCC(N)=O)NC(=O)[C@H](CCCNC(=N)N)NC(=O)[C@H](C)NC(=O)[C@@H](NC(=O)[C@H](Cc1c[nH]c2ccccc12)NC(=O)[C@@H](N)CCCNC(=N)N)C(C)C)C(=O)N[C@@H](Cc1ccc(O)cc1)C(=O)N[C@@H](Cc1ccc(O)cc1)C(=O)N[C@@H](Cc1ccccc1)C(=O)N[C@@H](CC(=O)O)C(=O)N[C@@H](Cc1ccc(O)cc1)C(=O)N[C@@H](Cc1c[nH]c2ccccc12)C(=O)N[C@H](C(=O)N[C@@H](Cc1c[nH]c2ccccc12)C(=O)N[C@@H](CCC(=O)O)C(=O)O)C(C)C` [2m] (H-RWVARQLYYFDYWVWE-OH), the pEC50 at PD1:PDL1 interaction (setting [2]) is 6.84.
